Legend:
Type in all cases: physicochemical
[1] = Room temperature stability test (XRPD before and after storage); details: sealed in medicinal low-density polyethylene bag, 180 days
Protocol: The detection instruments and conditions used in the following examples are as follows: • (1) X-Ray Powder Diffraction (XRPD) • Instrument Model: Bruker D8 advance, equipped with a LynxEye detector • Test conditions: the anode target material was copper, the light pipe was set to (40 KV 40 mA), the 2θ scan angle for the sample was from 3° to 40°, and scan step was 0.02°. • (2) Differential Scanning Calorimetry Analysis (DSC) • Instrument Model: TA Discovery DSC 250 (TA Instruments, US) • Test conditions: the heating rate was 10° C./min, and dry nitrogen was used as the purge gas. • (3) Thermogravimetric Analysis (TGA) • Instrument Model: Discovery TGA 55 (TA Instruments, US) • Test conditions: automatic weighing in the heating furnace, the heating rate was 10° C./min, and dry nitrogen was used as the purge gas. • (4) Polarizing Microscope Analysis (PLM) • Instrument Model: Polarizing Microscope ECLIPSE LV100POL (Nikon, JPN) […]

[2] = Physical grinding stability test (XRPD); details: physically ground for 2 minutes
Protocol: (§1) The detection instruments and conditions used in the following examples are as follows: • (1) X-Ray Powder Diffraction (XRPD) • Instrument Model: Bruker D8 advance, equipped with a LynxEye detector • Test conditions: the anode target material was copper, the light pipe was set to (40 KV 40 mA), the 2θ scan angle for the sample was from 3° to 40°, and scan step was 0.02°. • (2) Differential Scanning Calorimetry Analysis (DSC) • Instrument Model: TA Discovery DSC 250 (TA Instruments, US) • Test conditions: the heating rate was 10° C./min, and dry nitrogen was used as the purge gas. • (3) Thermogravimetric Analysis (TGA) • Instrument Model: Discovery TGA 55 (TA Instruments, US) • Test conditions: automatic weighing in the heating furnace, the heating rate was 10° C./min, and dry nitrogen was used as the purge gas. • (4) Polarizing Microscope Analysis (PLM) • Instrument Model: Polarizing Microscope ECLIPSE LV100POL (Nikon, JPN)
The crystalline form I prepared in Example 2 was physically ground for 2 minutes, and then the XRPD pattern was measured with a Bruker D8 advance X-ray powder diffractometer (see FIG. 21).

[3] = High temperature stability test (XRPD); details: 60° C.
Protocol: as §1
The stability of the crystalline form I prepared in Example 2 was investigated at 60° C., and the XRPD pattern was measured with a Bruker D8 advance X-ray powder diffractometer (see FIG. 19).

[4] = High humidity stability test (XRPD); details: 92.5% RH/25° C., after 5, 10 and 30 days
Protocol: as §1
The stability of the crystalline form I prepared in Example 2 was investigated under a condition of 92.5% RH/25° C., and the XRPD pattern was measured with a Bruker D8 advance X-ray powder diffractometer (see FIG. 20).

change in the crystalline form (XRPD) after storage at room temperature [1]: no change in the crystalline form
change in the crystalline form (XRPD) after physical grinding [2]: no change in the crystalline form
change in the crystalline form after storage under a high temperature condition (summary statement) ([3]; 30 days): its crystalline form did not change
change in the crystalline form (XRPD) at high temperature ([3]; after 5, 10 and 30 days): no change in the crystalline form
change in the crystalline form (XRPD) at high humidity [4]: no change in the crystalline form
SMILES: C#Cc1cc(Oc2cnc(N)nc2N)c(C(C)C)cn1 [crystalline form I, 5-((2-ethynyl-5-isopropylpyridin-4-yl)oxy)pyrimidine-2,4-diamine]
